{
  "source": "EPA's ToxRefDB 2",
  "key": {"rat [1]": {"system": "rat", "details": "Multigenerational reproductive toxicity study, wistar, Oral, Feed, dose end: 4 generation"}, "rat [2]": {"system": "rat", "details": "Prenatal developmental toxicity study, sprague dawley, Oral, Gavage/Intubation, dose end: 19 GD"}, "rat [3]": {"system": "rat", "details": "Prenatal developmental toxicity study, wistar, Oral, Gavage/Intubation, dose end: 15 GD"}, "rabbit [4]": {"system": "rabbit", "details": "Prenatal developmental toxicity study, new zealand white, Oral, Gavage/Intubation, dose end: 18 GD"}, "rabbit [5]": {"system": "rabbit", "details": "Prenatal developmental toxicity study, new zealand white, Dermal, Topical, dose end: 19 GD"}, "rabbit [6]": {"system": "rabbit", "details": "Prenatal developmental toxicity study, other, Oral, Gavage/Intubation, dose end: 18 GD"}, "[7]": {"details": "group: offspring, developmental / developmental malformation / bone / absent + developmental / developmental malformation / bone / incomplete ossification + …"}, "[8]": {"details": "group: offspring, systemic / in life observation / body weight / offspring (pup) weight gain"}, "[9]": {"details": "group: parental, systemic / in life observation / body weight / body weight gain"}, "[10]": {"details": "group: reproductive, reproductive / reproductive performance / fertility / fertility + reproductive / reproductive performance / pregnancy / pregnancy"}, "[11]": {"details": "group: reproductive, reproductive / reproductive performance / fertility / fertility + reproductive / reproductive performance / pregnancy / pregnancy + …"}, "[12]": {"details": "group: developmental, developmental / developmental malformation / bone / bipartite ossification + developmental / developmental malformation / bone / …"}, "[13]": {"details": "group: maternal, systemic / in life observation / body weight / body weight + systemic / in life observation / clinical signs / abnormal gait + systemic / in…"}, "[14]": {"details": "group: developmental, developmental / developmental malformation / general / [other]"}, "[15]": {"details": "group: maternal, systemic / in life observation / body weight / body weight + systemic / in life observation / food consumption / food consumption"}, "[16]": {"details": "group: developmental, developmental / developmental malformation / bone / [other] + developmental / developmental malformation / bone / curled + developmental / …"}, "[17]": {"details": "group: maternal, systemic / in life observation / body weight / body weight gain"}, "[18]": {"details": "group: maternal, systemic / in life observation / body weight / body weight gain + reproductive / reproductive performance / aborted / aborted + reproductive…"}, "[19]": {"details": "group: developmental, developmental / developmental malformation / innominate artery / [other]"}, "[20]": {"details": "group: developmental, systemic / in life observation / body weight / fetal weight"}, "[21]": {"details": "group: maternal, systemic / in life observation / body weight / body weight + systemic / in life observation / body weight / body weight gain + reproductive…"}, "[22]": {"details": "group: maternal, systemic / in life observation / body weight / body weight + systemic / in life observation / body weight / body weight gain + systemic / in…"}},
  "data": [
    {"compound": "CC(O)CCO", "note": "(configuration not stated) [1,3-Butanediol]", "values": [
      {"measurement": "LOAEL", "setting": "rat [1]; [7]", "result": "> 12000", "unit": "mg/kg/day"},
      {"measurement": "NOAEL", "setting": "rat [1]; [7]", "result": "≥ 12000", "unit": "mg/kg/day"},
      {"measurement": "LEL", "setting": "rat [1]; [8]", "result": 2500, "unit": "mg/kg/day"},
      {"measurement": "NEL", "setting": "rat [1]; [8]", "result": "< 2500", "unit": "mg/kg/day"},
      {"measurement": "LEL", "setting": "rat [1]; [9]", "result": 2500, "unit": "mg/kg/day"},
      {"measurement": "LOAEL", "setting": "rat [1]; [9]", "result": "> 12000", "unit": "mg/kg/day"},
      {"measurement": "NEL", "setting": "rat [1]; [9]", "result": "< 2500", "unit": "mg/kg/day"},
      {"measurement": "NOAEL", "setting": "rat [1]; [9]", "result": "≥ 12000", "unit": "mg/kg/day"},
      {"measurement": "LEL", "setting": "rat [1]; [10]", "result": 2500, "unit": "mg/kg/day"},
      {"measurement": "NEL", "setting": "rat [1]; [10]", "result": "< 2500", "unit": "mg/kg/day"},
      {"measurement": "LOAEL", "setting": "rat [1]; [11]", "result": "> 12000", "unit": "mg/kg/day"},
      {"measurement": "NOAEL", "setting": "rat [1]; [11]", "result": "≥ 12000", "unit": "mg/kg/day"}
    ]},
    {"compound": "OC(CCl)CCl", "note": "[1,3-Dichloro-2-propanol]", "values": [
      {"measurement": "LEL", "setting": "rat [2]; [12]", "result": 90, "unit": "mg/kg/day"},
      {"measurement": "LOAEL", "setting": "rat [2]; [12]", "result": "> 90", "unit": "mg/kg/day"},
      {"measurement": "NEL", "setting": "rat [2]; [12]", "result": 30, "unit": "mg/kg/day"},
      {"measurement": "NOAEL", "setting": "rat [2]; [12]", "result": "≥ 90", "unit": "mg/kg/day"},
      {"measurement": "LOAEL", "setting": "rat [2]; [13]", "result": "> 90", "unit": "mg/kg/day"},
      {"measurement": "NEL", "setting": "rat [2]; [13]", "result": 10, "unit": "mg/kg/day"},
      {"measurement": "NOAEL", "setting": "rat [2]; [13]", "result": "≥ 90", "unit": "mg/kg/day"},
      {"measurement": "LEL", "setting": "rat [2]; group: maternal, systemic / in life observation / clinical signs / motor activity + systemic / in life observation / food consumption / food consumption + …", "result": 30, "unit": "mg/kg/day"}
    ]},
    {"compound": "OCC#CCO", "note": "[2-Butyne-1,4-diol]", "values": [
      {"measurement": "LEL", "setting": "rat [3]; [14]", "result": 80, "unit": "mg/kg/day"},
      {"measurement": "LOAEL", "setting": "rat [3]; [14]", "result": "> 80", "unit": "mg/kg/day"},
      {"measurement": "NEL", "setting": "rat [3]; [14]", "result": 40, "unit": "mg/kg/day"},
      {"measurement": "NOAEL", "setting": "rat [3]; [14]", "result": "≥ 80", "unit": "mg/kg/day"},
      {"measurement": "LEL", "setting": "rat [3]; [15]", "result": 80, "unit": "mg/kg/day"},
      {"measurement": "LOAEL", "setting": "rat [3]; [15]", "result": "> 80", "unit": "mg/kg/day"},
      {"measurement": "NEL", "setting": "rat [3]; [15]", "result": 40, "unit": "mg/kg/day"},
      {"measurement": "NOAEL", "setting": "rat [3]; [15]", "result": "≥ 80", "unit": "mg/kg/day"}
    ]},
    {"compound": "Nc1ncn[nH]1", "note": "[Amitrole]", "values": [
      {"measurement": "LEL", "setting": "rabbit [4]; [16]", "result": 40, "unit": "mg/kg/day"},
      {"measurement": "LOAEL", "setting": "rabbit [4]; [16]", "result": 40, "unit": "mg/kg/day"},
      {"measurement": "NEL", "setting": "rabbit [4]; [16]", "result": 4, "unit": "mg/kg/day"},
      {"measurement": "NOAEL", "setting": "rabbit [4]; [16]", "result": 4, "unit": "mg/kg/day"},
      {"measurement": "LEL", "setting": "rabbit [4]; [17]", "result": 40, "unit": "mg/kg/day"},
      {"measurement": "LOAEL", "setting": "rabbit [4]; [17]", "result": 40, "unit": "mg/kg/day"},
      {"measurement": "NEL", "setting": "rabbit [4]; [18]", "result": 4, "unit": "mg/kg/day"},
      {"measurement": "NOAEL", "setting": "rabbit [4]; [18]", "result": 4, "unit": "mg/kg/day"},
      {"measurement": "LEL", "setting": "rabbit [5]; [19]", "result": 1000, "unit": "mg/kg/day"},
      {"measurement": "NEL", "setting": "rabbit [5]; [19]", "result": "< 1000", "unit": "mg/kg/day"},
      {"measurement": "LOAEL", "setting": "rabbit [5]; [20]", "result": 2000, "unit": "mg/kg/day"},
      {"measurement": "NOAEL", "setting": "rabbit [5]; group: developmental, systemic / in life observation / body weight / fetal weight + developmental / developmental malformation / bone / absent + developmental / …", "result": 1500, "unit": "mg/kg/day"},
      {"measurement": "LOAEL", "setting": "rabbit [5]; group: maternal, systemic / in life observation / body weight / body weight + systemic / in life observation / body weight / body weight gain", "result": 2000, "unit": "mg/kg/day"},
      {"measurement": "LEL", "setting": "rabbit [5]; [21]", "result": 2000, "unit": "mg/kg/day"},
      {"measurement": "NEL", "setting": "rabbit [5]; [21]", "result": 1500, "unit": "mg/kg/day"},
      {"measurement": "NOAEL", "setting": "rabbit [5]; [21]", "result": 1500, "unit": "mg/kg/day"},
      {"measurement": "LEL", "setting": "rabbit [6]; [20]", "result": 80, "unit": "mg/kg/day"},
      {"measurement": "LOAEL", "setting": "rabbit [6]; [20]", "result": 80, "unit": "mg/kg/day"},
      {"measurement": "NEL", "setting": "rabbit [6]; [20]", "result": 20, "unit": "mg/kg/day"},
      {"measurement": "NOAEL", "setting": "rabbit [6]; [20]", "result": 20, "unit": "mg/kg/day"},
      {"measurement": "LEL", "setting": "rabbit [6]; [22]", "result": 80, "unit": "mg/kg/day"},
      {"measurement": "LOAEL", "setting": "rabbit [6]; [22]", "result": 80, "unit": "mg/kg/day"},
      {"measurement": "NEL", "setting": "rabbit [6]; [22]", "result": 20, "unit": "mg/kg/day"},
      {"measurement": "NOAEL", "setting": "rabbit [6]; [22]", "result": 20, "unit": "mg/kg/day"}
    ]}
  ]
}
